Key:
Carbonic anhydrase 2 = Carbonic anhydrase 2 (Homo sapiens, UniProt P00918)
Rattus norvegicus [1] = organism: Rattus norvegicus; experiment: animal or person; type: functional; settings: Wistar, Liver, po, 24 h
Rattus norvegicus [2] = organism: Rattus norvegicus; experiment: animal or person; type: functional; settings: Wistar, Liver, po, 24 h; remark: listed apart in the source
Homo sapiens [3] = organism: Homo sapiens; type: functional; settings: at 80 mg/day
MCF7 [4] = experiment: animal or person; type: functional, Homo sapiens; settings: Mus musculus, MCF7, po, 1176 h
Homo sapiens [5] = organism: Homo sapiens; type: functional; settings: at 5 mg/day
MCF7 [6] = experiment: animal or person; type: functional, Homo sapiens; settings: Mus musculus, MCF7, po, 1176 h; remark: listed apart in the source
Steryl-sulfatase [7] = molecular target: T1, Steryl-sulfatase (Homo sapiens, UniProt P08842); set-up: species or system Placenta, Microsome
T1 sequence (P08842 whole entry): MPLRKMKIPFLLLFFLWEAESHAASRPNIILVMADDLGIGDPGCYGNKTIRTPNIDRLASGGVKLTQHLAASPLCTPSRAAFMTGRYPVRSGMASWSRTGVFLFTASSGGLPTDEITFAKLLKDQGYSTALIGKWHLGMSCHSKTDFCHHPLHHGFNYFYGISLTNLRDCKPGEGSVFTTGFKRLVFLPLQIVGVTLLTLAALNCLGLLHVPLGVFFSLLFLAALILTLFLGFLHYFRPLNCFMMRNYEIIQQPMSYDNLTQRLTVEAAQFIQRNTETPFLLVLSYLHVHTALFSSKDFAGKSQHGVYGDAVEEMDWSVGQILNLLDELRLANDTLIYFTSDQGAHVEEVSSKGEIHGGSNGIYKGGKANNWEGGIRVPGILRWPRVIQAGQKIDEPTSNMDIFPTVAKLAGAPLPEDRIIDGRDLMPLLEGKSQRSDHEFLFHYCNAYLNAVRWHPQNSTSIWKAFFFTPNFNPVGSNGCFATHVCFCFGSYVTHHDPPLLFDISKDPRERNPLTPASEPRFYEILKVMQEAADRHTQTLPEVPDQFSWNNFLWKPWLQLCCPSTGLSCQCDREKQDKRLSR

in vivo = settings: Wistar, rat, po, 10 mg/kg
MDA-MB-231 [8] = experiment: cells; type: functional; settings: Homo sapiens, MDA-MB-231, 96 h
DU-145 [9] = experiment: cells; type: functional; settings: Homo sapiens, DU-145, 96 h
Steryl-sulfatase [10] = molecular target: T1, Steryl-sulfatase
Steryl-sulfatase [11] = molecular target: T1, Steryl-sulfatase; type: microsomes, Placenta, Microsome
MCF7 [12] = experiment: animal or person; type: functional, Homo sapiens; settings: Mus musculus, MCF7, po, 1176 h; remark: listed apart in the source
Rattus norvegicus [13] = organism: Rattus norvegicus; experiment: animal or person; type: functional; settings: Liver, po, 120 h
MCF7 [14] = experiment: animal or person; type: functional, Homo sapiens; settings: Mus musculus, MCF7, po, 1176 h; remark: listed apart in the source
Homo sapiens [15] = organism: Homo sapiens; type: functional
MCF7 [16] = experiment: cells; type: functional; settings: Homo sapiens
Homo sapiens [17] = organism: Homo sapiens; type: functional; remark: listed apart in the source
Rattus norvegicus [18] = organism: Rattus norvegicus; experiment: animal or person; type: functional; settings: Liver, po, 2 h
Rattus norvegicus [19] = organism: Rattus norvegicus; experiment: animal or person; type: functional; settings: po, 2 h
Homo sapiens [20] = organism: Homo sapiens; type: functional; remark: listed apart in the source
Rattus norvegicus [21] = organism: Rattus norvegicus; experiment: animal or person; type: functional; settings: Liver, po, 2 h; remark: listed apart in the source
Rattus norvegicus [22] = organism: Rattus norvegicus; experiment: animal or person; type: functional; settings: po, 2 h; remark: listed apart in the source
Rattus norvegicus [23] = organism: Rattus norvegicus; experiment: animal or person; type: functional; settings: Wistar, Liver, sc, 168 h
Rattus norvegicus [24] = organism: Rattus norvegicus; experiment: animal or person; type: functional; settings: po, 2 h; remark: listed apart in the source
Rattus norvegicus [25] = organism: Rattus norvegicus; experiment: animal or person; type: functional; settings: Wistar, Liver, sc, 168 h; remark: listed apart in the source
Homo sapiens [26] = organism: Homo sapiens; type: functional; remark: listed apart in the source
Rattus norvegicus [27] = organism: Rattus norvegicus; experiment: animal or person; type: functional; settings: Liver, po, 2 h; remark: listed apart in the source
MDA-MB-231 [28] = experiment: animal or person; type: functional, Homo sapiens; settings: Mus musculus, MDA-MB-231, po, 840 h
DU-145 [29] = experiment: cells; type: functional; settings: Homo sapiens
MDA-MB-231 [30] = experiment: cells; type: functional; settings: Homo sapiens
Aromatase = molecular target: T2, Aromatase (Homo sapiens, UniProt P11511)
T2 sequence (P11511 whole entry): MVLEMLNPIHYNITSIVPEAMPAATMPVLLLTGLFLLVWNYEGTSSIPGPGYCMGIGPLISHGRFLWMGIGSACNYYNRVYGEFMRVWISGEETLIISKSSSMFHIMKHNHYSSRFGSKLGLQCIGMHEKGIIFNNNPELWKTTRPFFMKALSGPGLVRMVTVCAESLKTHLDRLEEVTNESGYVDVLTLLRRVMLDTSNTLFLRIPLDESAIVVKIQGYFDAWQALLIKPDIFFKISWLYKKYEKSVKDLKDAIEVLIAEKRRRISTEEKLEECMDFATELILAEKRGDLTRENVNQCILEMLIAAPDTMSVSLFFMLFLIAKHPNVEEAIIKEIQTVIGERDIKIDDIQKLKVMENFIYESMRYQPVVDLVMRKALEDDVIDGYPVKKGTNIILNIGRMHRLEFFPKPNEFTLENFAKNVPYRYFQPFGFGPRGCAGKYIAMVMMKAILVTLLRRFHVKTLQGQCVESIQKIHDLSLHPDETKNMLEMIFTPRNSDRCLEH

Rattus norvegicus [31] = organism: Rattus norvegicus; experiment: animal or person; type: functional; settings: Wistar, po, 3 h
Rattus norvegicus [32] = organism: Rattus norvegicus; experiment: animal or person; type: functional; settings: Wistar, Liver, po
Steryl-sulfatase [33] = molecular target: T1, Steryl-sulfatase; type: cell-based, HEK293
Estrogen receptor = molecular target: T3, Estrogen receptor (Homo sapiens, UniProt P03372)
T3 sequence (P03372 whole entry): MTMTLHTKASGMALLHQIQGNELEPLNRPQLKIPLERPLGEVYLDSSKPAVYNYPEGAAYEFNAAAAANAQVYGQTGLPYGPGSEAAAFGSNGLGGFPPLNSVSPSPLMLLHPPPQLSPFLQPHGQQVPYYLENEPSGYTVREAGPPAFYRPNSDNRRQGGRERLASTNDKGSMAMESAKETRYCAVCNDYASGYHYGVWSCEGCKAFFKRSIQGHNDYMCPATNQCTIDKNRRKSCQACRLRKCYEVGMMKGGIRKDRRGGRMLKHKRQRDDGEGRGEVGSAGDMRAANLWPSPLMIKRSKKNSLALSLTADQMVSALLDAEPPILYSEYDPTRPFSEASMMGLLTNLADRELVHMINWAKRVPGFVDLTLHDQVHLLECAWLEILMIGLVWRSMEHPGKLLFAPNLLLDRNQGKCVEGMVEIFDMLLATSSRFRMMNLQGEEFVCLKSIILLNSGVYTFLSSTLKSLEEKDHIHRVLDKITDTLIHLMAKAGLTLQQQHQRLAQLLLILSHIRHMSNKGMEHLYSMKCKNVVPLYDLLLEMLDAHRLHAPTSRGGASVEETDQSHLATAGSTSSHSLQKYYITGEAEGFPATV

CCc1cc2c(cc1OS(N)(=O)=O)CC[C@@H]1[C@@H]2CC[C@]2(C)[C@@H](OS(N)(=O)=O)CC[C@@H]12
Ki (Carbonic anhydrase 2): 232 nM

NS(=O)(=O)Oc1ccc(C(=O)c2ccc(OS(N)(=O)=O)cc2)cc1
inhibition in vivo at 10 mg/kg (Rattus norvegicus [1]): 93%
inhibition in vivo at 1 mg/kg (Rattus norvegicus [2]): 84%

NS(=O)(=O)Oc1ccc2c(c1)OC(=O)C1CCCCCC21 (configuration not stated)
inhibition (INH) (Homo sapiens [3]): >=95%
inhibition in vivo at 20 mg/kg (MCF7 [4]): 39%
inhibition (INH) (Homo sapiens [5]): >=95%
inhibition in vivo at 20 mg/kg (MCF7 [6]): 79%
IC50 (Steryl-sulfatase [7]): 8 nM
bioavailability (in vivo): 95%

CCN(CC)CCOCC[C@@]1(C)CC[C@H]2[C@@H]3[C@H](C)Cc4cc(OS(N)(=O)=O)ccc4[C@H]3CC[C@@]21C
GI50 (MDA-MB-231 [8]): 71 nM
GI50 (DU-145 [9]): 51 nM

CC(C)(C#N)c1cc(Cn2cncn2)cc(Sc2ccc(OS(N)(=O)=O)c(Cl)c2)c1
IC50 (Steryl-sulfatase [10]): 3000 nM

CCCN1C(=O)C[C@H]2[C@@H]3CCc4cc(OS(N)(=O)=O)ccc4[C@H]3CC[C@]2(C)C1=O
IC50 (Steryl-sulfatase [11]): 1 nM
inhibition in vivo at 10 mg/kg (MCF7 [12]): 56%
inhibition in vivo at 10 mg/kg/day (Rattus norvegicus [13]): 99%
inhibition in vivo at 10 mg/kg (MCF7 [14]): 39%

C[C@]12CC[C@@H]3c4ccc(OS(N)(=O)=O)cc4CC[C@H]3[C@@H]1CCC2=O [EMATE]
inhibition (INH) (Homo sapiens [15]): 50%
GI50 (MCF7 [16]): 22800 nM
inhibition (INH) (Homo sapiens [17]): 41%
inhibition in vivo at 10 mg/kg (Rattus norvegicus [18]): 98%
inhibition in vivo at 20 mg/kg (Rattus norvegicus [19]): 98%
inhibition (INH) (Homo sapiens [20]): 72%
inhibition in vivo at 20 mg/kg (Rattus norvegicus [21]): 98%
inhibition in vivo at 40 mg/kg (Rattus norvegicus [22]): 98%
inhibition in vivo at 0.1 mg/kg (Rattus norvegicus [23]): 87%
inhibition in vivo at 10 mg/kg (Rattus norvegicus [24]): 98%
inhibition in vivo at 0.1 mg/kg (Rattus norvegicus [25]): 87%
inhibition (INH) (Homo sapiens [26]): 34%
inhibition in vivo at 40 mg/kg (Rattus norvegicus [27]): 98%

COc1cc2c(cc1OS(N)(=O)=O)CCN(Cc1cc(OC)c(OC)c(OC)c1)C2
inhibition in vivo at 20 mg/kg/day (MDA-MB-231 [28]): 84%
GI50 (DU-145 [29]): 297 nM
GI50 (MDA-MB-231 [30]): 329 nM

N#Cc1ccc(N(Cc2ccc(Br)cc2)n2cnnc2)cc1
IC50 (Aromatase): 0.12 nM
inhibition in vivo at 10 mg/kg (Rattus norvegicus [31]): 70%
inhibition in vivo at 10 mg/kg (Rattus norvegicus [32]): ≥ 98%

CCN(Cc1ccc(C(=O)N2CCc3ccc(OS(N)(=O)=O)cc3C2)cc1)Cc1ccccn1
IC50 (Steryl-sulfatase [33]): 300 nM
IC50 (Estrogen receptor): 3100 nM
